Where a name gives a salt, the structure may show the parent alone.
What was measured:
[1] = cataleptic effects (Tedeschi et al.); type: in vivo, rat; conditions: in vivo, rat, fumarate salt, expressed as free base
From the text: The procedure used for determing cataleptic effects of the fumarate salts was based on that of Tedeschi et al., Arch. Int. Pharmacodyn.

rat = test: acute toxicity (LD50), rat; type: in vivo; conditions: fumarate salt, expressed as free base
Experimental: (§1) The acute toxicities of the ±-racemate, the (+)-isomer and the (-)-isomer were conducted with the fumarate salts and probit analysis (Finney, D. J., Statistical Methods in Biological Assay, Hafner Pub. Co., N.Y., 2nd. Ed., 1964) was employed for the statistical treatment of the mortality data.

[2] = system: Chlorpromazine-Induced Catalepsy; test: Effects on Chlorpromazine-Induced Catalepsy; type: in vivo, rat; conditions: then (+)-isomer 25 mg/kg IP after one hour
Experimental: (§2) (+)-4-Amino-N-(1-cyclohexyl-3-pyrrolidinyl)-N-methylbenzamide is useful in reducing the cataleptic side effects of known therapeutically effective drugs such as chlorpromazine [2-chloro-10-(3-dimethylaminopropyl)phenothiazine] and metoclopramide (N-diethylaminoethyl 2-methoxy-4-amino-5-chlorophenylcarboxamide). The effectiveness is shown in Tables IV and V. In each test the rat was administered a 100% effective cataleptic dose of the test drug followed one hour later by an effective dose of (+)-4-amino-N-(1-cyclohexyl-3-pyrrolidinyl)-N-methylbenzamide.

mouse = test: acute toxicity (LD50), mouse; type: in vivo; conditions: fumarate salt, expressed as free base
Experimental: as §1

[3] = system: Metoclopramide-Induced Catalepsy; test: Effects on Metoclopramide-Induced Catalepsy; type: in vivo, rat; conditions: Metoclopramide 40 mg/kg IP
Experimental: as §2

SMILES: CN(C(=O)c1ccc(N)cc1)C1CCN(C2CCCCC2)C1 (single isomer, unassigned; (+)) [(+)-isomer, (+)-4-Amino-N-(1-cyclohexyl-3-pyrrolidinyl)-N-methyl benzamide Fumarate]
- NOAEL ([1]; IP): 100 mg/kg
- NOAEL ([1]; PO): 200 mg/kg
- LD50 (95% Confidence Limits) (rat; I.P.): 147 (134-222) mg/kg
- LD50 (95% Confidence Limits) (rat; P.O.): 499 (322-593) mg/kg
- Percent of Rats Cataleptic ([2]; Chlorpromazine 4 mg/kg IP, 0.5 h after initial treatment): 100%
- Percent of Rats Cataleptic ([2]; Chlorpromazine 4 mg/kg IP, 1.0 h after initial treatment): 100%
- Percent of Rats Cataleptic ([2]; Chlorpromazine 4 mg/kg IP, 1.5 h after initial treatment): 50%
- Percent of Rats Cataleptic ([2]; Chlorpromazine 4 mg/kg IP, 2.0 h after initial treatment): 33%
- Percent of Rats Cataleptic ([2]; Chlorpromazine 4 mg/kg IP, 3.0 h after initial treatment): 33%
- Percent of Rats Cataleptic ([2]; Chlorpromazine 4 mg/kg IP, 4.0 h after initial treatment): 50%
- Percent of Rats Cataleptic ([2]; Chlorpromazine 4 mg/kg IP, 5.0 h after initial treatment): 100%
- Percent of Rats Cataleptic ([2]; Chlorpromazine 4 mg/kg IP, 6.0 h after initial treatment): 67%
- Percent of Rats Cataleptic ([2]; saline 10 ml/kg IP, 0.5 h after initial treatment): 0%
- Percent of Rats Cataleptic ([2]; saline 10 ml/kg IP, 1.0 h after initial treatment): 0%
- Percent of Rats Cataleptic ([2]; saline 10 ml/kg IP, 1.5 h after initial treatment): 0%
- Percent of Rats Cataleptic ([2]; saline 10 ml/kg IP, 2.0 h after initial treatment): 0%
- Percent of Rats Cataleptic ([2]; saline 10 ml/kg IP, 3.0 h after initial treatment): 0%
- Percent of Rats Cataleptic ([2]; saline 10 ml/kg IP, 4.0 h after initial treatment): 17%
- Percent of Rats Cataleptic ([2]; saline 10 ml/kg IP, 5.0 h after initial treatment): 17%
- Percent of Rats Cataleptic ([2]; saline 10 ml/kg IP, 6.0 h after initial treatment): 0%
- LD50 (95% Confidence Limits) (mouse; I.P.): 126 (115-139) mg/kg
- LD50 (95% Confidence Limits) (mouse; P.O.): 267 (233-313) mg/kg
- Percent of Rats Cataleptic ([3]; then (+)-isomer 12.5 mg/kg IP after one hour, 0.5 h after initial treatment): 100%
- Percent of Rats Cataleptic ([3]; then (+)-isomer 12.5 mg/kg IP after one hour, 1.0 h after initial treatment): 100%
- Percent of Rats Cataleptic ([3]; then (+)-isomer 12.5 mg/kg IP after one hour, 1.5 h after initial treatment): 100%
- Percent of Rats Cataleptic ([3]; then (+)-isomer 12.5 mg/kg IP after one hour, 2.0 h after initial treatment): 88%
- Percent of Rats Cataleptic ([3]; then (+)-isomer 12.5 mg/kg IP after one hour, 3.0 h after initial treatment): 88%
- Percent of Rats Cataleptic ([3]; then (+)-isomer 12.5 mg/kg IP after one hour, 4.0 h after initial treatment): 100%
- Percent of Rats Cataleptic ([3]; then (+)-isomer 12.5 mg/kg IP after one hour, 5.0 h after initial treatment): 100%
- Percent of Rats Cataleptic ([3]; then (+)-isomer 12.5 mg/kg IP after one hour, 6.0 h after initial treatment): 100%
- Percent of Rats Cataleptic ([3]; then (+)-isomer 12.5 mg/kg IP after one hour, 7.0 h after initial treatment): 100%
- Percent of Rats Cataleptic ([3]; then (+)-isomer 25 mg/kg IP after one hour, 0.5 h after initial treatment): 100%
- Percent of Rats Cataleptic ([3]; then (+)-isomer 25 mg/kg IP after one hour, 1.0 h after initial treatment): 100%
- Percent of Rats Cataleptic ([3]; then (+)-isomer 25 mg/kg IP after one hour, 1.5 h after initial treatment): 100%
- Percent of Rats Cataleptic ([3]; then (+)-isomer 25 mg/kg IP after one hour, 2.0 h after initial treatment): 75%
- Percent of Rats Cataleptic ([3]; then (+)-isomer 25 mg/kg IP after one hour, 3.0 h after initial treatment): 38%
- Percent of Rats Cataleptic ([3]; then (+)-isomer 25 mg/kg IP after one hour, 4.0 h after initial treatment): 75%
- Percent of Rats Cataleptic ([3]; then (+)-isomer 25 mg/kg IP after one hour, 5.0 h after initial treatment): 88%
- Percent of Rats Cataleptic ([3]; then (+)-isomer 25 mg/kg IP after one hour, 6.0 h after initial treatment): 88%
- Percent of Rats Cataleptic ([3]; then (+)-isomer 40 mg/kg IP after one hour, 0.5 h after initial treatment): 88%
- Percent of Rats Cataleptic ([3]; then (+)-isomer 40 mg/kg IP after one hour, 1.0 h after initial treatment): 88%
- Percent of Rats Cataleptic ([3]; then (+)-isomer 40 mg/kg IP after one hour, 1.5 h after initial treatment): 25%
- Percent of Rats Cataleptic ([3]; then (+)-isomer 40 mg/kg IP after one hour, 2.0 h after initial treatment): 13%
- Percent of Rats Cataleptic ([3]; then (+)-isomer 40 mg/kg IP after one hour, 3.0 h after initial treatment): 38%
- Percent of Rats Cataleptic ([3]; then (+)-isomer 40 mg/kg IP after one hour, 4.0 h after initial treatment): 38%
- Percent of Rats Cataleptic ([3]; then (+)-isomer 40 mg/kg IP after one hour, 5.0 h after initial treatment): 88%
- Percent of Rats Cataleptic ([3]; then (+)-isomer 40 mg/kg IP after one hour, 6.0 h after initial treatment): 88%
- Percent of Rats Cataleptic ([3]; then (+)-isomer 40 mg/kg IP after one hour, 7.0 h after initial treatment): 88%
- Percent of Rats Cataleptic ([3]; then (+)-isomer 50 mg/kg IP after one hour, 0.5 h after initial treatment): 100%
- Percent of Rats Cataleptic ([3]; then (+)-isomer 50 mg/kg IP after one hour, 1.0 h after initial treatment): 100%
- Percent of Rats Cataleptic ([3]; then (+)-isomer 50 mg/kg IP after one hour, 1.5 h after initial treatment): 13%
- Percent of Rats Cataleptic ([3]; then (+)-isomer 50 mg/kg IP after one hour, 2.0 h after initial treatment): 13%
- Percent of Rats Cataleptic ([3]; then (+)-isomer 50 mg/kg IP after one hour, 3.0 h after initial treatment): 25%
- Percent of Rats Cataleptic ([3]; then (+)-isomer 50 mg/kg IP after one hour, 4.0 h after initial treatment): 25%
- Percent of Rats Cataleptic ([3]; then (+)-isomer 50 mg/kg IP after one hour, 5.0 h after initial treatment): 75%
- Percent of Rats Cataleptic ([3]; then (+)-isomer 50 mg/kg IP after one hour, 6.0 h after initial treatment): 88%
- Percent of Rats Cataleptic ([3]; then (+)-isomer 50 mg/kg IP after one hour, 7.0 h after initial treatment): 75%
